Laboratory results: ChEMBL document CHEMBL1149774, “Synthesis of N-(5,7-diamino-3-phenyl-quinoxalin-2-yl)-3,4,5-substituted anilines and N-[4[(5,7-diamino-3-phenylquinoxalin-2-yl)amino]benzoyl]-l-glutamic acid diethyl ester: evaluation of in vitro anti-cancer and anti-folate activities” (Eur J Med Chem, 2008)

Columns and labels:
Format in all cases: functional
[1] = tested on: KM12; test: Growth inhibition of human KM12 cells after 48 hrs by SRB staining method; details: KM12, 48 h
[2] = tested on: DU-145; test: Growth inhibition of human DU145 cells after 48 hrs by SRB staining method; details: DU-145, 48 h
[3] = Growth inhibition of human HS 578T cells after 48 hrs by SRB staining method
[4] = tested on: ACHN; test: Growth inhibition of human ACHN cells after 48 hrs by SRB staining method
[5] = tested on: NCI-H23; test: Growth inhibition of human NCI-H23 cells after 48 hrs by SRB staining method; details: NCI-H23, 48 h
[6] = tested on: NCI/ADR-RES; test: Growth inhibition of human NCI/ADR-RES cells after 48 hrs by SRB staining method
[7] = tested on: RXF 393; test: Growth inhibition of human RXF393 cells after 48 hrs by SRB staining method; details: RXF 393, 48 h
[8] = tested on: SK-OV-3; test: Growth inhibition of human SKOV3 cells after 48 hrs by SRB staining method; details: SK-OV-3, 48 h
[9] = tested on: A498; test: Growth inhibition of human A498 cells after 48 hrs by SRB staining method; details: A498, 48 h
[10] = tested on: UO-31; test: Growth inhibition of human UO31 cells after 48 hrs by SRB staining method; details: UO-31, 48 h
[11] = tested on: SNB-19; test: Growth inhibition of human SNB19 cells after 48 hrs by SRB staining method; details: SNB-19, 48 h
[12] = tested on: UACC-62; test: Growth inhibition of human UACC62 cells after 48 hrs by SRB staining method; details: UACC-62, 48 h
[13] = tested on: A549; test: Growth inhibition of human A549 cells after 48 hrs by SRB staining method; details: A549, 48 h
[14] = tested on: SK-MEL-2; test: Growth inhibition of human SK-MEL-2 cells after 48 hrs by SRB staining method; details: SK-MEL-2, 48 h
[15] = tested on: SW-620; test: Growth inhibition of human SW620 cells after 48 hrs by SRB staining method; details: SW-620, 48 h
[16] = tested on: NCI-H460; test: Growth inhibition of human NCI-H460 cells after 48 hrs by SRB staining method; details: NCI-H460, 48 h
[17] = tested on: OVCAR-8; test: Growth inhibition of human OVCAR8 cells after 48 hrs by SRB staining method; details: OVCAR-8, 48 h
[18] = tested on: RPMI-8226; test: Growth inhibition of human RPMI8226 cells after 48 hrs by SRB staining method; details: RPMI-8226, 48 h
[19] = tested on: K562; test: Growth inhibition of human K562 cells after 48 hrs by SRB staining method; details: K562, 48 h
[20] = tested on: NCI-H322M; test: Growth inhibition of human NCI-H322M cells after 48 hrs by SRB staining method
[21] = tested on: SF-268; test: Growth inhibition of human SF268 cells after 48 hrs by SRB staining method; details: SF-268, 48 h
[22] = tested on: LOX IMVI; test: Growth inhibition of human LOX IMVI cells after 48 hrs by SRB staining method
[23] = tested on: HCT-15; test: Growth inhibition of human HCT15 cells after 48 hrs by SRB staining method; details: HCT-15, 48 h
[24] = tested on: EKVX; test: Growth inhibition of human EKVX cells after 48 hrs by SRB staining method
[25] = tested on: SK-MEL-28; test: Growth inhibition of human SK-MEL-28 cells after 48 hrs by SRB staining method; details: SK-MEL-28, 48 h
[26] = tested on: 786-0; test: Growth inhibition of human 786-0 cells after 48 hrs by SRB staining method; details: 786-0, 48 h
[27] = tested on: SN12C; test: Growth inhibition of human SN12C cells after 48 hrs by SRB staining method
[28] = tested on: U-251; test: Growth inhibition of human U251 cells after 48 hrs by SRB staining method; details: U-251, 48 h
[29] = tested on: NCI-H522; test: Growth inhibition of human NCI-H522 cells after 48 hrs by SRB staining method; details: NCI-H522, 48 h
[30] = tested on: SR; test: Growth inhibition of human SR cells after 48 hrs by SRB staining method
[31] = tested on: SK-MEL-5; test: Growth inhibition of human SK-MEL-5 cells after 48 hrs by SRB staining method; details: SK-MEL-5, 48 h
[32] = tested on: HOP-62; test: Growth inhibition of human HOP62 cells after 48 hrs by SRB staining method; details: HOP-62, 48 h
[33] = read-out: pLC50 (the source's name) (converted)

`COc1cc(Nc2nc3cc(N)cc(N)c3nc2-c2ccccc2)cc(OC)c1OC` showed a GI50 [1] of 10.7 µM, an LC50 [1] of 81.3 µM and a TGI ([1]; read-out: pTGI (converted)) of 29.5 µM. For the same compound, the GI50 [2] was 21.9 µM, the CC50 [2, 33] was greater than 100 µM and the TGI ([2]; read-out: pTGI (converted)) was 74.1 µM. It also gave a GI50 [3] of 15.1 µM, a CC50 [3, 33] greater than 100 µM and a TGI ([3]; read-out: pTGI (converted)) of 77.6 µM. It also gave a GI50 [4] of 16.6 µM, a CC50 [4, 33] greater than 100 µM and a TGI ([4]; read-out: pTGI (converted)) of 42.7 µM. The GI50 [5] was 25.1 µM, the LC50 [5] was greater than 100 µM and the TGI ([5]; read-out: pTGI (converted)) was 75.9 µM. The GI50 [6] was 14.5 µM, the CC50 [6, 33] was greater than 100 µM and the TGI ([6]; read-out: pTGI (converted)) was 43.7 µM. The GI50 [7] was 14.5 µM, the CC50 [7, 33] was 83.2 µM and the TGI ([7]; read-out: pTGI (converted)) was 34.7 µM. For the same compound, the GI50 [8] was 22.9 µM, the CC50 [8, 33] was greater than 100 µM and the TGI ([8]; read-out: pTGI (converted)) was 57.5 µM. The GI50 [9] was 31.6 µM, the CC50 [9, 33] was greater than 100 µM and the TGI ([9]; read-out: pTGI (converted)) was greater than 100 µM. For the same compound, the GI50 [10] was 15.1 µM, the CC50 [10, 33] was greater than 100 µM and the TGI ([10]; read-out: pTGI (converted)) was 91.2 µM. For the same compound, the GI50 [11] was 33.1 µM, the LC50 [11] was greater than 100 µM and the TGI ([11]; read-out: pTGI (converted)) was greater than 100 µM. The GI50 [12] was 13.5 µM, the LC50 [12] was 74.1 µM and the TGI ([12]; read-out: pTGI (converted)) was 31.6 µM. It also gave a GI50 [13] of 29.5 µM, a CC50 [13, 33] greater than 100 µM and a TGI ([13]; read-out: pTGI (converted)) greater than 100 µM. It also gave a GI50 [14] of 15.8 µM, an LC50 [14] of 77.6 µM and a TGI ([14]; read-out: pTGI (converted)) of 35.5 µM. It also gave a GI50 [15] of 24 µM, a CC50 [15, 33] greater than 100 µM and a TGI ([15]; read-out: pTGI (converted)) greater than 100 µM. The GI50 [16] was 17 µM, the LC50 (concentration killing 50% of cells) [16] was greater than 100 µM and the TGI ([16]; read-out: pTGI (converted)) was 52.5 µM. The GI50 [17] was 15.5 µM, the CC50 [17, 33] was 79.4 µM and the TGI ([17]; read-out: pTGI (converted)) was 34.7 µM. The GI50 [18] was 12.3 µM, the CC50 [18, 33] was 85.1 µM and the TGI ([18]; read-out: pTGI (converted)) was 32.4 µM. It also gave a GI50 [19] of 12.6 µM, a CC50 [19, 33] greater than 100 µM and a TGI ([19]; read-out: pTGI (converted)) of 39.8 µM. The LC50 [20] was greater than 100 µM, the GI50 [21] was 18.2 µM and the CC50 [21, 33] was greater than 100 µM. The TGI ([21]; read-out: pTGI (converted)) was 60.3 µM, the GI50 [22] was 18.6 µM and the LC50 [22] was greater than 100 µM. It also gave a TGI ([22]; read-out: pTGI (converted)) of 49 µM, a GI50 [23] of 15.1 µM and an LC50 [23] greater than 100 µM. The TGI ([23]; read-out: pTGI (converted)) was 45.7 µM, the GI50 [24] was 17.8 µM and the CC50 [24, 33] was greater than 100 µM. The TGI ([24]; read-out: pTGI (converted)) was 47.9 µM, the GI50 [25] was 1.45 µM and the CC50 [25, 33] was 63.1 µM. The TGI ([25]; read-out: pTGI (converted)) was 20.9 µM, the GI50 [26] was 14.5 µM and the CC50 [26, 33] was greater than 100 µM. It also gave a TGI ([26]; read-out: pTGI (converted)) of 40.7 µM, a GI50 [27] of 20.4 µM and a CC50 [27, 33] greater than 100 µM. For the same compound, the TGI ([27]; read-out: pTGI (converted)) was 83.2 µM, the GI50 [28] was 24.5 µM and the LC50 (50% lethal concentration) [28] was greater than 100 µM. It also gave a TGI ([28]; read-out: pTGI (converted)) greater than 100 µM, a GI50 [29] of 18.2 µM and an LC50 [29] greater than 100 µM. For the same compound, the TGI ([29]; read-out: pTGI (converted)) was 53.7 µM, the GI50 [30] was 3.31 µM and the CC50 [30, 33] was 72.4 µM. It also gave a TGI ([30]; read-out: pTGI (converted)) of 15.8 µM, a GI50 [31] of 12.9 µM and an LC50 [31] of 58.9 µM. It also gave a TGI ([31]; read-out: pTGI (converted)) of 27.5 µM, a GI50 [32] of 16.2 µM and an LC50 [32] of 72.4 µM. For the same compound, the TGI ([32]; read-out: pTGI (converted)) was 34.7 µM.
